The values below come from patent US8906953B2, “Pyrrolidine substitute flavones for the treatment of inflammatory disorders” (Piramal Enterprises Limited, priority 2010, dated 2014).

One test concerns TNF-α. Kind of test: Spontaneous TNF-α release from synovial cells of RA patients. To be noted: Homo sapiens, Synovial cell, freshly isolated synovial cells from RA patients, 16 hours. Type of test: cell-based. As for the experimental part: Cytokine production in synovial cells obtained from rheumatoid arthritis patients undergoing knee replacement surgery, was measured as per the method described in reference, Lancet, 1989, 29, 244-247, the disclosure of which is incorporated herein by reference for the teaching of the assay. The synovial membrane tissue was digested by incubating at 37° C. for 3 hours in an atmosphere of 5% CO2, in Roswell Park Memorial Institute (RPMI) medium containing penicillin-G (100 U/mL), streptomycin (100 μg/mL), amphotericin B (50 ng/mL) (GIBCO), 1.33 mg/mL collagenase Type I (Worthington Biochemical Corporation, New Jersey, USA), 0.5 μg/mL DNAse Type I (SIGMA) and 8.33 U/mL heparin (Biological E. Limited, India). The digested tissue was then filtered through a membrane (mesh size 70 micron) (SIGMA), the cells were washed 3 times and suspended in complete medium (RPMI supplemented with 5% FCS and 5% human serum). The cell concentration was adjusted to 1×10^6 cells/mL. The viability as determined by trypan blue dye exclusion was uniform Ly≧98%. The cell suspension (100 μL) was added to the wells of a 96-well culture plate. […] The final concentration of DMSO was adjusted to 0.5%. The vehicle (0.5° A) DMSO) was used as control. SB 203580 (20 μM) was used as a standard. The plates were incubated for 16 hours at 37° C. in 5% CO2 atmosphere. […]

In a further test the test system is IκBα. Nature of the test: TNFα-induced IκBα phosphorylation and degradation, western blot in Jurkat cells. Type of test: cell-based, human. To be noted: 0.1 μM, 0.1 nM TNF-α 0-90 minutes. As for the experimental part: The method for IκBα degradation was designed as in reference, The Journal of Immunology, 1999, 103, 6800-6809, the disclosure of which is also incorporated by reference for the teaching of the assay.
Human Jurkat T-cells from American Type Culture Collection (ATCC) were cultivated in Rosewell Park Memorial Institute (RPMI) medium supplemented with 10% fetal bovine serum (FBS), penicillin (100 U/mL) and streptomycin (100 μg/mL) at 37° C. in humidified atmosphere of 95% air-5% CO2. Culture medium was changed every 2-3 days and always 24 hours before harvest. RPMI medium, FBS, CellLytic, anti-β-actin, sodium orthovanadate and anisomycin were purchased from Sigma-Aldrich (USA). TNF-α was purchased from R & D Systems (USA). Complete Protease inhibitor cocktail was procured from Roche.
Jurkat cells were preincubated with vehicle or the compound of example 3 (0.1 μM) for 1 hour in a 37° C., CO2 incubator. For MAPK experiments, the cells were stimulated with anisomycin (10 μg/mL) for 30 minutes. SB 203580 was used as a standard (1 μM). For studies pertaining to degradation of IκBα and IκBα (phospho) the cells were stimulated with 0.1 nM TNF-α for 0, 5, 15, 30, 60 and 90 minutes. […] Aliquots of the resulting extracts were analyzed for their protein content using the Coomassie Plus Protein Assay Reagent (Pierce) following manufacturer's instructions. […]
(A western blot detects proteins with antibodies after separation by electrophoresis.)

In general, IC50 refers to the concentration that inhibits the measured activity by half. Read a high IC50 as lower potency. In turn, `CN1CC[C@@H](c2c(O)cc(O)c3c(=O)cc(-c4ccc(C(F)(F)F)cc4Cl)oc23)[C@@H]1CO.Cl` [Compound of example 3, (+)-trans-2-(2-Chloro-4-trifluoromethyl-phenyl)-5,7-dihydroxy-8-(2-hydroxymethyl-1-methyl-pyrrolidin-3-yl)-chromen-4-one hydrochloride] registered an IC50 in the test on TNF-α of 20 µM. In addition, the “TNFα-induced IkBα phosphorylation and degradation (western blot)” value in the test on IκBα is “blocks TNFα-induced IkBα phosphorylation and degradation”.
